Results reported in ChEMBL document CHEMBL1134999, “Synthesis and cytotoxic activity of a new potent daunomycinone derivative” (Bioorg Med Chem Lett, 2002).
pIC50: −log10 of the molar value.

Key:
[1] = tested on: KB 3-1; test: In vitro cytotoxic activity was evaluated using the human epidermoid carcinoma cell line KB-3-1; format: functional, cell-based
[2] = tested on: L1210; test: In vitro cytotoxic activity was evaluated using the murine leukemia L1210 cell line; format: functional, cell-based; conditions: Mus musculus
[3] = tested on: KB; test: Resistance factor (RF), ratio between the IC50 on the resistant cells and the IC50 on the corresponding sensitive cells of KB cell line; format: functional, Homo sapiens
[4] = tested on: MES-SA; test: In vitro cytotoxic activity was evaluated using the MES-SA multidrug-resistant subline MES-SA/Dx5; format: functional, cell-based; conditions: Homo sapiens
[5] = tested on: MES-SA; test: In vitro cytotoxic activity was evaluated using the human uterine sarcoma cell line MES-SA; format: functional, cell-based
[6] = tested on: KB; test: In vitro cytotoxic activity was evaluated using the KB-3-1 resistant to adriamycin (ADR) subline KB-A1; format: functional, cell-based; conditions: Homo sapiens
[7] = tested on: SK-MES-1; test: Resistance factor (RF), ratio between the IC50 on the resistant cells and the IC50 on the corresponding sensitive cells of MES cell line; format: functional, Homo sapiens

Row | SMILES | pIC50 [1] | pIC50 [2] | Resistance factor [3] | pIC50 [4] | pIC50 [5] | pIC50 [6] | Resistance factor [7]
1 | COc1cccc2c1C(=O)c1c(O)c3c(c(O)c1C2=O)C[C@@](O)(C(C)=O)C[C@@H]3OC1CC(Br)C(N=[N+]=[N-])C(C)O1 (some centres not stated) | 6.10 | 6.30 | 1.1 | 5.70 | 5.15 | 6.05 | 0.28
2 | COc1cccc2c1C(=O)c1c(O)c3c(c(O)c1C2=O)C[C@@](O)(C(C)=O)C[C@@H]3O[C@H]1C[C@H](N)[C@H](O)[C@H](C)O1 [DAUNORUBICIN] | – | 7.40 | 295.7 | 5.52 | 7.15 | – | 42.8
3 | COc1cccc2c1C(=O)c1c(O)c3c(c(O)c1C2=O)C[C@@](O)(C(=O)CO)C[C@@H]3O[C@H]1C[C@H](N)[C@H](O)[C@H](C)O1 [DOXORUBICIN] | – | 7.60 | 333.8 | 4.92 | 6.60 | – | 48
